Assay results taken from PubChem BioAssay AID330 (DTP/NCI, 2004).
Values joined by “and” are separate entries in the source; they are usually repeats but may differ in a detail not shown here. Equal entries are not always repeated. Toxic doses and inconclusive results are not listed. Rule for the calls: active = survival T/C of 150% or more; inactive = T/C below 125% in these data.

System: P388 leukemia ip, CD2F1 mice, survival T/C
Assay: NCI In Vivo Anticancer Drug Screen. Data for tumor model P388 Leukemia (intraperitoneal) in CD2F1 (CDF1) mice
Settings: endpoint: median survival time, higher = longer survival
Method in brief: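 Mice carrying the transplanted tumor received test compound or vehicle. Survival was recorded in each group, and the value is the treated-group measurement divided by that of the vehicle-treated control group.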

[1] = dose: 6.25 mg/kg/injection, schedule: Q01DX009 (ip), vehicle: saline with Tween-80
[2] = dose: 50.0 mg/kg/injection, schedule: Q01DX009 (ip), vehicle: saline with Tween-80
[3] = dose: 60.0 mg/kg/injection, schedule: Q01DX005 (ip), vehicle: saline with Tween-80
[4] = dose: 120.0 mg/kg/injection, schedule: Q01DX005 (ip), vehicle: saline with Tween-80
[5] = dose: 100.0 mg/kg/injection, schedule: Q01DX009 (ip), vehicle: Klucel (hydroxypropylcellulose) (HPC)
[6] = dose: 200.0 mg/kg/injection, schedule: Q01DX009 (ip), vehicle: Klucel (hydroxypropylcellulose) (HPC)
[7] = dose: 30.0 mg/kg/injection, schedule: Q01DX005 (ip), vehicle: saline with Tween-80
[8] = dose: 60.0 mg/kg/injection, schedule: Q01DX005 (ip), vehicle: saline
[9] = dose: 120.0 mg/kg/injection, schedule: Q01DX005 (ip), vehicle: saline
[10] = dose: 50.0 mg/kg/injection, schedule: Q01DX005 (ip), vehicle: Klucel (hydroxypropylcellulose) (HPC)
[11] = dose: 100.0 mg/kg/injection, schedule: Q01DX005 (ip), vehicle: Klucel (hydroxypropylcellulose) (HPC)
[12] = dose: 200.0 mg/kg/injection, schedule: Q01DX005 (ip), vehicle: Klucel (hydroxypropylcellulose) (HPC)
[13] = dose: 50.0 mg/kg/injection, schedule: Q01DX005 (ip), vehicle: saline with Tween-80
[14] = dose: 100.0 mg/kg/injection, schedule: Q01DX005 (ip), vehicle: saline with Tween-80
[15] = dose: 200.0 mg/kg/injection, schedule: Q01DX005 (ip), vehicle: saline with Tween-80
[16] = dose: 100.0 mg/kg/injection, schedule: Q01DX009 (ip), vehicle: saline with Tween-80
[17] = dose: 100.0 mg/kg/injection, schedule: Q04DX003 (ip), vehicle: saline with Tween-80
[18] = dose: 200.0 mg/kg/injection, schedule: Q04DX003 (ip), vehicle: saline with Tween-80
[19] = dose: 400.0 mg/kg/injection, schedule: Q04DX003 (ip), vehicle: saline with Tween-80
[20] = dose: 50.0 mg/kg/injection, schedule: Q01DX009 (ip), vehicle: Klucel (hydroxypropylcellulose) (HPC)

Measured: T/C

NC(=S)c1ccc(/C=N/c2nccs2)cc1
inactive: dose: 100.0 mg/kg/injection, schedule: Q01DX001 (ip), vehicle: Klucel (hydroxypropylcellulose) (HPC) 105 % of control | dose: 200.0 mg/kg/injection, schedule: Q01DX001 (ip), vehicle: Klucel (hydroxypropylcellulose) (HPC) 104 % of control | dose: 400.0 mg/kg/injection, schedule: Q01DX001 (ip), vehicle: Klucel (hydroxypropylcellulose) (HPC) 105 % of control

c1ccc(-c2cnc3cccnc3n2)cc1
inactive: dose: 60.0 mg/kg/injection, schedule: Q01DX005 (ip), vehicle: Klucel (hydroxypropylcellulose) (HPC) 100 % of control | dose: 120.0 mg/kg/injection, schedule: Q01DX005 (ip), vehicle: Klucel (hydroxypropylcellulose) (HPC) 99 % of control

Cc1ccc(S(=O)(=O)C(=S)Sc2ccccc2)cc1
inactive: dose: 3.12 mg/kg/injection, schedule: Q01DX009 (ip), vehicle: saline with Tween-80 104 % of control | [1] 105 % of control | dose: 12.5 mg/kg/injection, schedule: Q01DX009 (ip), vehicle: alcohol 104 % of control | dose: 12.5 mg/kg/injection, schedule: Q01DX009 (ip), vehicle: saline with Tween-80 109 % of control | dose: 25.0 mg/kg/injection, schedule: Q01DX009 (ip), vehicle: alcohol 107 % of control | dose: 50.0 mg/kg/injection, schedule: Q01DX009 (ip), vehicle: alcohol 107 % of control | [2] 123 % of control

CC(=O)OC(C(=O)CBr)C(OC(C)=O)C(OC(C)=O)C(=O)CBr (stereo not drawn)
inactive: dose: 12.5 mg/kg/injection, schedule: Q01DX009 (ip), vehicle: Klucel (hydroxypropylcellulose) (HPC) 114 % of control | dose: 25.0 mg/kg/injection, schedule: Q01DX009 (ip), vehicle: Klucel (hydroxypropylcellulose) (HPC) 96 % of control

CN1CCN(c2c(C(=O)Nc3ccc([N+](=O)[O-])cc3)cc([N+](=O)[O-])cc2[N+](=O)[O-])CC1
inactive: [3] 92 % of control | [4] 90 % of control

O=C1Nc2ccc(Cl)cc2C(c2ccccc2Cl)=NC1O (stereo not drawn)
inactive: [5] 102 % of control | [6] 96 % of control

O=S(=O)([O-])[O-].OCCNCCNCC[OH2+].OCCNCCNCC[OH2+].[Ni+2]
inactive: dose: 12.5 mg/kg/injection, schedule: Q01DX009 (ip), vehicle: saline 102 % of control | dose: 25.0 mg/kg/injection, schedule: Q01DX009 (ip), vehicle: saline 93 % of control

[N-]=[N+]=NCC(O)COc1c2ccccc2nc2ccccc12 (stereo not drawn)
inactive: dose: 15.0 mg/kg/injection, schedule: Q01DX005 (ip), vehicle: saline with Tween-80 95 % of control | [7] 99 % of control | [3] 112 % of control

Cc1ccc2[nH]c(C)c(C(=O)c3ccncc3)c2c1
inactive: dose: 100.0 mg/kg/injection, schedule: Q04DX003 (ip), vehicle: Klucel (hydroxypropylcellulose) (HPC) 100 % of control | dose: 200.0 mg/kg/injection, schedule: Q04DX003 (ip), vehicle: Klucel (hydroxypropylcellulose) (HPC) 100 % of control | dose: 400.0 mg/kg/injection, schedule: Q04DX003 (ip), vehicle: Klucel (hydroxypropylcellulose) (HPC) 107 % of control

CC(=O)C(=Cc1ccc(OC2OC(CO)C(O)C(O)C2O)cc1)C(C)=O (stereo not drawn)
inactive: [8] 100 % of control | [9] 100 % of control | dose: 240.0 mg/kg/injection, schedule: Q01DX005 (ip), vehicle: saline 98 % of control

CCc1nc(N)nc(N)c1-c1ccc2c(c1)nnn2C
inactive: [10] 104 % of control | [11] 104 % of control | [12] 95 % of control

Nc1ncnc2c1ncn2C(/C=N/Nc1ccccc1)OC(/C=N\Nc1ccccc1)CO (stereo not drawn)
inactive: [13] 106 % of control | [14] 106 % of control | [15] 107 % of control

O=C1C=CC(=O)C=C1 (tested in a mixture with another compound)
inactive: dose: 1.0 mg/kg/injection, schedule: Q01DX009 (ip), vehicle: saline sonified 100 % of control | dose: 2.0 mg/kg/injection, schedule: Q01DX009 (ip), vehicle: saline sonified 109 % of control | dose: 3.0 mg/kg/injection, schedule: Q01DX009 (ip), vehicle: saline sonified 100 % of control | dose: 6.0 mg/kg/injection, schedule: Q01DX009 (ip), vehicle: saline sonified 100 % of control

CN1COc2c(Cl)cc(Cl)cc2C1
inactive: dose: 25.0 mg/kg/injection, schedule: Q01DX009 (ip), vehicle: saline with Tween-80 95 % of control | [2] 90 % of control | [16] 86 % of control

CC1(CCl)COP(=O)(NN)OC1 (stereo not drawn)
inactive: [8] 101 % of control | [9] 102 % of control

O=C1C=CC(=O)c2cc(Cl)c(Cl)cc21
inactive: dose: 4.12 mg/kg/injection, schedule: Q01DX009 (ip), vehicle: saline with Tween-80 109 % of control | [1] 113 % of control | dose: 6.25 mg/kg/injection, schedule: Q04DX003 (ip), vehicle: saline with Tween-80 91 % of control | dose: 12.5 mg/kg/injection, schedule: Q04DX003 (ip), vehicle: saline with Tween-80 91 % of control

Clc1nc2nc(C3CC3)[nH]c2nc1Cl
inactive: [17] 100 % of control | [18] 100 % of control | [19] 100 % of control

NS(=O)(=O)c1cc2c(cc1Cl)NC=NS2(=O)=O
inactive: dose: 18.75 mg/kg/injection, schedule: Q01DX009 (ip), vehicle: Klucel (hydroxypropylcellulose) (HPC) 100 % of control and 103 % of control | dose: 37.5 mg/kg/injection, schedule: Q01DX009 (ip), vehicle: Klucel (hydroxypropylcellulose) (HPC) 104 % of control and 91 % of control | dose: 75.0 mg/kg/injection, schedule: Q01DX009 (ip), vehicle: Klucel (hydroxypropylcellulose) (HPC) 104 % of control and 89 % of control | dose: 150.0 mg/kg/injection, schedule: Q01DX009 (ip), vehicle: Klucel (hydroxypropylcellulose) (HPC) 104 % of control and 90 % of control | dose: 225.0 mg/kg/injection, schedule: Q01DX009 (ip), vehicle: Klucel (hydroxypropylcellulose) (HPC) 99 % of control and 100 % of control

NC(CCC(=O)O)C(=O)NC(Cc1c[nH]c2ccccc12)C(=O)O (stereo not drawn)
inactive: [13] 103 % of control | [14] 96 % of control | [15] 105 % of control

CN1C=NNC(=O)c2ccccc21
inactive: [2] 86 % of control | [16] 87 % of control | dose: 200.0 mg/kg/injection, schedule: Q01DX009 (ip), vehicle: saline with Tween-80 102 % of control

CCOc1cc2c(cc1C(C)c1ccc(OCc3ccccc3)cc1)OCO2 (stereo not drawn)
inactive: [10] 88 % of control | [11] 96 % of control | [12] 91 % of control

Nc1nc(Cl)c2nc(Cl)n(C3OC(CO)C(O)C3O)c2n1 (stereo not drawn)
inactive: dose: 50.0 mg/kg/injection, schedule: Q04DX003 (ip), vehicle: saline with Tween-80 100 % of control | [17] 100 % of control | [18] 100 % of control | [19] 91 % of control

C1=C(c2ccccc2)C(=Nc2ccccc2)SC1=Nc1ccccc1
inactive: dose: 1.87 mg/kg/injection, schedule: Q01DX005 (ip), vehicle: saline with Tween-80 113 % of control | dose: 7.5 mg/kg/injection, schedule: Q01DX005 (ip), vehicle: saline with Tween-80 107 % of control | [7] 100 % of control | [3] 120 % of control | [4] 122 % of control | dose: 240.0 mg/kg/injection, schedule: Q01DX005 (ip), vehicle: saline with Tween-80 120 % of control

Cc1ccc(S(=O)(=O)N/N=C/c2c(C)noc2C)cc1
inactive: [20] 101 % of control | [5] 95 % of control | [6] 95 % of control

Oc1ccc2ccccc2c1C(c1ccc(Cl)cc1)c1c(O)ccc2ccccc12
inactive: [13] 100 % of control | [14] 101 % of control | [15] 107 % of control

NC(Cc1ccccc1)C(=O)OCN1C(=O)C2C3C=CC(C2C1=O)C1C(=O)N(COC(=O)C(N)Cc2ccccc2)C(=O)C31 (stereo not drawn)
inactive: dose: 25.0 mg/kg/injection, schedule: Q01DX009 (ip), vehicle: water 100 % of control | dose: 50.0 mg/kg/injection, schedule: Q01DX009 (ip), vehicle: water 104 % of control | dose: 100.0 mg/kg/injection, schedule: Q01DX009 (ip), vehicle: water 114 % of control | dose: 200.0 mg/kg/injection, schedule: Q01DX009 (ip), vehicle: water 124 % of control

CS(=O)(=O)OCC(COS(C)(=O)=O)(COS(C)(=O)=O)COS(C)(=O)=O
inactive: [20] 93 % of control | [5] 99 % of control | [6] 94 % of control
